# Test results as given in patent publication US20170022171A1, “2,5-DISUBSTITUTED CYCLOPENTANECARBOXYLIC ACIDS AND THEIR USE” (Bayer Pharma Aktiengesellschaft, priority 2014, published 2017).
# How the values were obtained:
# Format in all cases: biochemical
# mouse MMP-2 = molecular target: T1, mouse MMP-2 (Mus musculus, UniProt P33434); assay: In vitro mouse MMP-2 inhibition test
# T1 construct: purchased R&D Systems 924-MP
# From the text: (§1) The MMP-mediated amidolytic cleavage of a suitable peptide substrate leads to an increase in fluorescent light here too. The signal intensity of the fluorescent light is directly proportional to the enzyme activity. The active concentration of a test compound at which half the enzyme is inhibited (50% signal intensity of the fluorescent light) is reported as the IC50 value.
# (§2) Recombinant mouse MMP-2 (from R&D Systems, 924-MP) is chemically activated in accordance with the manufacturer's instructions using APMA. 1 μl of the test compound to be analysed (as a solution in DMSO, suitable concentrations, for example, 1 nM to 30 μM) is pipetted into 24 μl of activated enzyme (final concentration, for example, 0.1 nM) in reaction buffer (50 mM Tris/HCl pH 7.5, 10 mM CaCl2, 150 mM NaCl, 0.05% Brij®-35) in a white 384-hole microtiter plate (MTP). The enzymatic reaction is started by adding the intramolecularly quenched Mca-Pro-Leu-Gly-Leu-Dpa(Dnp)-Ala-Arg-NH2 substrate (final concentration, for example, 10 μM; R&D Systems, ES-001), so as to result in a total test volume of 50 The course of the MMP-2 reaction is measured by measuring the fluorescence intensity (excitation 320 nm, emission 410 nm) over a suitable period of time (for example over 120 min at a temperature of 32° C.).
# mouse MMP-3 = molecular target: T2, mouse MMP-3 (Mus musculus, UniProt P28862); assay: In vitro mouse MMP-3 inhibition test
# T2 construct: purchased R&D Systems 548-MP
# From the text: as §1
# (§3) Recombinant mouse MMP-3 (from R&D Systems, 548-MP) is chemically activated in accordance with the manufacturer's instructions using APMA. 1 μl of the test compound to be analysed (as a solution in DMSO, suitable concentrations, for example, 1 nM to 30 μM) is pipetted into 24 μl of activated enzyme (final concentration, for example, 0.5 nM) in reaction buffer (50 mM Tris/HCl pH 7.5, 10 mM CaCl2, 150 mM NaCl, 0.05% Brij®-35) in a white 384-hole microtiter plate (MTP). The enzymatic reaction is started by adding the intramolecularly quenched Mca-Arg-Pro-Lys-Pro-Val-Glu-Nval-Trp-Arg-Lys(Dnp)-NH2 substrate (final concentration, for example, 5 μM; R&D Systems, ES-002), so as to result in a total test volume of 50 μl. The course of the MMP-3 reaction is measured by measuring the fluorescence intensity (excitation 320 nm, emission 410 nm) over a suitable period of time (for example over 120 min at a temperature of 32° C.).
# mouse MMP-7 = molecular target: T3, mouse MMP-7 (Mus musculus, UniProt Q10738); assay: In vitro mouse MMP-7 inhibition test
# T3 construct: purchased R&D Systems 2967-MP
# T3 sequence (Q10738 95-264): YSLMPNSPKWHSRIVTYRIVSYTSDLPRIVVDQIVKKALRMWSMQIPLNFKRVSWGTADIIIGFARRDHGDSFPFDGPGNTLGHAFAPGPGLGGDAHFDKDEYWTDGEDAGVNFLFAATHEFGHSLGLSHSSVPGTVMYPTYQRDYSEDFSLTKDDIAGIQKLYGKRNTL
# From the text: as §1
# as §3, with “MMP-7” for “MMP-3”, “2967-MP)” for “548-MP)”, “Mca-Lys-Pro-Leu-Gly-Leu-Dpa(Dnp)-Ala-Arg-NH2” for “Mca-Arg-Pro-Lys-Pro-Val-Glu-Nval-Trp-Arg-Lys(Dnp)-NH2”, “ES-010),” for “ES-002),”
# mouse MMP-8 = molecular target: T4, mouse MMP-8 (Mus musculus, UniProt O70138); assay: In vitro mouse MMP-8 inhibition test
# T4 construct: purchased R&D Systems 2904-MP
# From the text: as §1
# as §3, with “MMP-8” for “MMP-3”, “2904-MP)” for “548-MP)”, “2” for “0.5”, “Mca-Lys-Pro-Leu-Gly-Leu-Dpa(Dnp)-Ala-Arg-NH2” for “Mca-Arg-Pro-Lys-Pro-Val-Glu-Nval-Trp-Arg-Lys(Dnp)-NH2”, “ES-010),” for “ES-002),”
# mouse MMP-9 = molecular target: T5, mouse MMP-9 (Mus musculus, UniProt P41245); assay: In vitro mouse MMP-9 inhibition test
# T5 construct: purchased R&D Systems 909-MP
# From the text: as §1
# as §2, with “mouse MMP-9” for “mouse MMP-2”, “Systems, 909-MP)” for “Systems, 924-MP)”, “example, 5” for “example, 10”, “the MMP-9” for “the MMP-2”
# T1 sequence (P33434 110-662): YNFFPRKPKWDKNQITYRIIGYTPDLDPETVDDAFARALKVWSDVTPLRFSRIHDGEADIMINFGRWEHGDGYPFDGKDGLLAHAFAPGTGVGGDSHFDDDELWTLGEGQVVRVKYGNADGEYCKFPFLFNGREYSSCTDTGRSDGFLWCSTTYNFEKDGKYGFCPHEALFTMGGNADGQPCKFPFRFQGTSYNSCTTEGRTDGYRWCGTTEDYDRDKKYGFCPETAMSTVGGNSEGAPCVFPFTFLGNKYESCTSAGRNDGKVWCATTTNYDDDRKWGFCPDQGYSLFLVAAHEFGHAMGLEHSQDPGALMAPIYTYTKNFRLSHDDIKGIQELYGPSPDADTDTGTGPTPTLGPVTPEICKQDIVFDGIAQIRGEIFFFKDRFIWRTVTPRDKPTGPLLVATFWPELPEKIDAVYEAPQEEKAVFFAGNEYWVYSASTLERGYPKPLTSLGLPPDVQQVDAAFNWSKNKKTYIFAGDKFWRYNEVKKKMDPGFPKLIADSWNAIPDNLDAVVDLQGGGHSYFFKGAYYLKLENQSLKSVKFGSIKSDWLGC
# T5 sequence (P41245 108-730): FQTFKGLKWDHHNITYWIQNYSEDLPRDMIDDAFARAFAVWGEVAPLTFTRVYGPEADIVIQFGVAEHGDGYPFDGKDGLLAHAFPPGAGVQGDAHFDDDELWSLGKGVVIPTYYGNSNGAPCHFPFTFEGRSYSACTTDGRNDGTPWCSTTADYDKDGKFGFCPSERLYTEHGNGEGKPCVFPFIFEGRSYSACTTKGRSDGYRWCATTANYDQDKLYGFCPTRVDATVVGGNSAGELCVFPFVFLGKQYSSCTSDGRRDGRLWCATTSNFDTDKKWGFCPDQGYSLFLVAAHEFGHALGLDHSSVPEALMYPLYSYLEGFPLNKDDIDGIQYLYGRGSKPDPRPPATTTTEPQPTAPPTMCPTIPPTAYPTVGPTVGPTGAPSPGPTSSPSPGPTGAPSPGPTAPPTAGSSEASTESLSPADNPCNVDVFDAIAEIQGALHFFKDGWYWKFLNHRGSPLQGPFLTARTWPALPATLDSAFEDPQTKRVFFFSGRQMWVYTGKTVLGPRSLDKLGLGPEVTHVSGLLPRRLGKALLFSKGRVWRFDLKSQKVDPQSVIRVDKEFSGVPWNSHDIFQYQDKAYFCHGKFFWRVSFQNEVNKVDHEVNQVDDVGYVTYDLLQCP
# T4 sequence (O70138 101-465): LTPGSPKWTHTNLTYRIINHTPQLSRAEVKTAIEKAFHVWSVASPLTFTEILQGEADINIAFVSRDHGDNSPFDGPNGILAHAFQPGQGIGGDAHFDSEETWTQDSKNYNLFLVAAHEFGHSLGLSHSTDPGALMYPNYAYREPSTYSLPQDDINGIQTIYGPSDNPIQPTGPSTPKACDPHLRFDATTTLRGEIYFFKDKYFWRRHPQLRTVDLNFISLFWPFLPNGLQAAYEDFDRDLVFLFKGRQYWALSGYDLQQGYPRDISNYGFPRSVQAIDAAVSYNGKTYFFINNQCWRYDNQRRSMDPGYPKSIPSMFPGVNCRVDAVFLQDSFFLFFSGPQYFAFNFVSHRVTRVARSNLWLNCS
# T2 sequence (P28862 100-477): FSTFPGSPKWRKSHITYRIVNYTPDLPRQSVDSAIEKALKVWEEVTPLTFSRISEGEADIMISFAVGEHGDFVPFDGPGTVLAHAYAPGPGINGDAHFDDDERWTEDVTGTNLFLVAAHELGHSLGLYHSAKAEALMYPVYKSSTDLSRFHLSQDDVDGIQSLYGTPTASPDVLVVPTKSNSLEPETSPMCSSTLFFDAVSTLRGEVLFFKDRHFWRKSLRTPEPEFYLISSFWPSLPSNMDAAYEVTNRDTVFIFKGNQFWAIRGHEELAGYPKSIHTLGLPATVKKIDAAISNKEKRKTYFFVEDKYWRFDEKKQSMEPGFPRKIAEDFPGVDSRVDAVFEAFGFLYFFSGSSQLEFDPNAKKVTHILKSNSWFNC
Compound,IC50 (mouse MMP-2) [nM],IC50 (mouse MMP-3) [nM],IC50 (mouse MMP-7) [nM],IC50 (mouse MMP-8) [nM],IC50 (mouse MMP-9) [nM]
"O=C(O)[C@@H]1[C@@H](Cn2nnc3ccc(C(F)(F)F)cc3c2=O)CC[C@H]1C(=O)c1ccc(SCc2ccc(Cl)c(Cl)c2)cc1 (single isomer, unassigned) [Example 80, (+)-(1RS,2RS,5SR)-2-{4-[(3,4-Dichlorobenzyl)sulphanyl]benzoyl}-5-{[4-oxo-6-(trifluoromethyl)-1,2,3-benzotriazin-3(4H)-yl]methyl}cyclopentanecarboxylic acid]",1500,2500,130,130,> 40000
"Cc1ccc2nnn(C[C@H]3CC[C@@H](C(=O)c4ccc(OCc5ccccc5)cc4)[C@@H]3C(=O)O)c(=O)c2c1 (single isomer, unassigned) [Example 92, (+)-(1RS,2RS,5SR)-2-[4-(Benzyloxy)benzoyl]-5-[(6-methyl-4-oxo-1,2,3-benzotriazin-3(4H)-yl)methyl]cyclopentanecarboxylic acid]",57,200,18,16,37
"Cc1cccc(COc2ccc(C(=O)[C@@H]3CC[C@H](Cn4nnc5ccc(C)cc5c4=O)[C@H]3C(=O)O)cc2)c1 (single isomer, unassigned) [Example 98, (+)-(1RS,2RS,5SR)-2-{4-[(3-Methylbenzyl)oxy]benzoyl}-5-[(6-methyl-4-oxo-1,2,3-benzotriazin-3(4H)-yl)methyl]cyclopentanecarboxylic acid]",640,730,29,280,460
"Cc1ccc2nnn(C[C@H]3CC[C@@H](C(=O)c4ccc(OCc5cccc(C(F)(F)F)c5)cc4)[C@@H]3C(=O)O)c(=O)c2c1 (single isomer, unassigned) [Example 101, (+)-(1RS,2SR,5RS)-2-[(6-Methyl-4-oxo-1,2,3-benzotriazin-3(4H)-yl)methyl]-5-(4-{[3-(trifluoromethyl)benzyl]oxy}benzoyl)cyclopentanecarboxylic acid]",490,1300,76,120,400
"Cc1ccc2nnn(C[C@H]3CC[C@@H](C(=O)c4ccc(OCc5cccc(Cl)c5)cc4)[C@@H]3C(=O)O)c(=O)c2c1 (single isomer, unassigned) [Example 104, (+)-(1RS,2RS,5SR)-2-{4-[(3-Chlorobenzyl)oxy]benzoyl}-5-[(6-methyl-4-oxo-1,2,3-benzotriazin-3(4H)-yl)methyl]cyclopentanecarboxylic acid]",290,490,20,130,330
"Cc1ccc2nnn(C[C@H]3CC[C@@H](C(=O)c4ccc(OCc5cccc(OC(F)(F)F)c5)cc4)[C@@H]3C(=O)O)c(=O)c2c1 (single isomer, unassigned) [Example 110, (+)-(1RS,2SR,5RS)-2-[(6-Methyl-4-oxo-1,2,3-benzotriazin-3(4H)-yl)methyl]-5-(4-{[3-(trifluoromethoxy)benzyl]oxy}benzoyl)cyclopentanecarboxylic acid]",1100,2400,220,420,1100
"Cc1ccc2nnn(C[C@H]3CC[C@@H](C(=O)c4ccc(OCC5CCCCC5)cc4)[C@@H]3C(=O)O)c(=O)c2c1 (single isomer, unassigned) [Example 117, (+)-(1RS,2RS,5SR)-2-[4-(Cyclohexylmethoxy)benzoyl]-5-[(6-methyl-4-oxo-1,2,3-benzotriazin-3(4H)-yl)methyl]cyclopentanecarboxylic acid]",130,470,16,13,230
"CCCCCCOc1ccc(C(=O)[C@@H]2CC[C@H](Cn3nnc4ccc(C)cc4c3=O)[C@H]2C(=O)O)cc1 (single isomer, unassigned) [Example 121, (+)-(1RS,2RS,5SR)-2-[4-(Hexyloxy)benzoyl]-5-[(6-methyl-4-oxo-1,2,3-benzotriazin-3(4H)-yl)methyl]cyclopentanecarboxylic acid]",420,2700,100,120,880
"COC(=O)Nc1cccc(COc2ccc(C(=O)[C@@H]3CC[C@H](Cn4nnc5ccc(C(F)(F)F)cc5c4=O)[C@H]3C(=O)O)cc2)c1 (stereo in doubt) [Example 31, (+)-(1RS,2RS,5SR)-2-[4-({3-[(Methoxycarbonyl)amino]benzyl}oxy)benzoyl]-5-{[4-oxo-6-(trifluoromethyl)-1,2,3-benzotriazin-3(4H)-yl]methyl}cyclopentanecarboxylic acid]",990,3900,44,89,4300
"(+)-(1RS,2RS,5SR)-2-{4-[(3,4-Dichlorobenzyl)oxy]benzoyl}-5-{[4-oxo-6-(trifluoromethyl)-1,2,3-benzotriazin-3(4H)-yl]methyl}cyclopentanecarboxylic acid [Example 28]",1000,8200,140,120,2500
"(+)-(1RS,2SR,5RS)-2-{[4-Oxo-6-(trifluoromethyl)-1,2,3-benzotriazin-3(4H)-yl]methyl}-5-{4-[(2-phenylethy)sulphanyl]benzoyl}cyclopentanecarboxylic acid [Example 83]",8100,5900,82,1100,> 40000
